In US20090227619A1, “Harmine derivatives, intermediates used in their preparations, preparation processes and use therefo” (priority 2003, published 2009):
Where “and” joins values, the source holds several entries; their conditions need not be identical. Equal values may be shown once. Read-outs that look alike come from different tables or passages of the source.

Experiments:
Lovo = assay: In vitro cytotoxicity, IC50 by MTT method, Lovo; assay type: cell-based
How it was run: (§1)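 MTT viability, 48 h exposure: cells 10^5/ml in RPMI1640 + 10% FBS, 37 °C/5% CO2; MTT 4 h, DMSO solubilisation, A490.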

HepG2 = assay: In vitro cytotoxicity, IC50 by MTT method, HepG2; assay type: cell-based, human
How it was run: as §1

NIH3T3 = assay: In vitro cytotoxicity, IC50 by MTT method, NIH3T3; assay type: cell-based
How it was run: as §1

BGC-823 = assay: In vitro cytotoxicity, IC50 by MTT method, BGC-823; assay type: cell-based
How it was run: as §1

Bel-7402 = assay: In vitro cytotoxicity, IC50 by MTT method, Bel-7402; assay type: cell-based
How it was run: as §1

[1] = Solubility (physico-chemical data tables); settings: qualitative
Hela = assay: In vitro cytotoxicity, IC50 by MTT method, Hela; assay type: cell-based
How it was run: as §1

PLA-801 = assay: In vitro cytotoxicity, IC50 by MTT method, PLA-801; assay type: cell-based
How it was run: as §1

CT-DNA [2] = assay: DNA thermal denaturation, determination of ΔTm; assay type: binding; settings: CT-DNA thermal denaturation; 20 uM compound; Tm of CT-DNA alone 61° C.
Experimental: Experiments were carried out in PE buffer (1 mM Na2HPO4, 0.1 mM EDTA, pH 7.6) in a thermostatically controlled cell hold, and the quartz cuvette (1 cm path length) was heated by circulating water at a heating rate of 0.5° C./min from 25 to 95° C. Amsacrine and Doxorubicin Hydrochloride were used as standards. In all cases, the concentration of CT-DNA was 15 ug/ml. The ‘melting’ temperature Tm was taken as the mid-point of the hyperchromic transition.
ΔTm=Tm^drug-DNA complex−Tm^DNA alone
The ΔTm of each compound was calculated, Experiments were repeated three times, and an average value was calculated.

S180 sarcoma = settings: comparison table 43, in vivo, S180 sarcoma
Lewis lung cancer = settings: comparison table 43, in vivo, Lewis lung cancer;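 note: mice implanted subcutaneously in the axilla with Lewis lung tumor cells, treated starting the following day, killed roughly three weeks after implantation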
Text: There was one group of 8 to 10 mice C57BL/6 and Kunming mice for the anti-tumor tests and two groups of mice for negative control.
(3) Sources of tumors: Lewis lung cancer cells and S180 sarcoma in mice, which were sub-cultured and maintained by Pharmacological Center of Shanghai Pharmaceutical Industrial Research Institute.
All samples were weighed and added a small amount of Tween-80 to facilitate dissolution during the experiment, and then 0.5% CMC-Na solution was gradually added to achieve the desired concentration. The volume for experiment was 0.5 ml/20 g mouse.
The medicaments were intraperitoneally administered once a day continuously for 10 days.
For the negative control group, a vehicle of the same volume was intraperitoneally administered once a day continuously for 10 days. For the positive control group, CTX was administered in the dosage of 30 mg/kg once a day continuously for 7 days.
In vivo anti-tumor subcutaneous vaccination in the axilla was employed. Wildly grown tumor source was taken under sterile conditions to form a cell suspension of about 1×10^7 ml by homogenization method. For a corresponding mouse host, the suspension was injected in the axilla in an amount of 0.2 ml/mouse. The next day, the medicaments were administered according to the design of the tests. About three weeks later, all the groups of animals were executed. The tumors were taken from the animals and weighed. The inhibition rate of tumors was calculated according to the following formula:
T: average tumor weight of treated group; C: average tumor weight of negative control group.

CT-DNA [3] = assay: UV absorption spectrum method with CT-DNA; assay type: binding; settings: CT-DNA 40 ug/ml, compound 20 uM, 37° C. for 2 h, OD at 260 nm
Experimental: Compounds to be tested (20 uM) were added into the PE buffer solution, and its scan curve was identified by the spectrograph at a wavelength of from 200 to 400 nm. CT-DNA (40 ug/ml) and compounds to be tested (20 uM) were added into the PE buffer solution. The mixture was cultured at 37° C. for 2 h, and its scan curve was identified by the UV spectrograph at a wavelength of from 200 to 400 nm. […] After that, the OD value at 260 nm of the scan curve of the medicaments tested and that of the CT-DNA mixture OD value at 260 nm of the scan curve were calculated and compared to determine the influences of the medicaments tested on the UV absorption spectrum of the DNA molecules.

[4] = PLA-801 cell strain, read-out: IC50 PLA-801
[5] = Homo sapiens, Lovo cell strain, read-out: IC50 Lovo
[6] = Homo sapiens, HepG2 cell strain, read-out: IC50 HepG2
[7] = Mus musculus, NIH3T3 cell strain, read-out: IC50 NIH3T3
[8] = Homo sapiens, BGC-823, BGC823 cell strain, read-out: IC50 BGC823
[9] = Homo sapiens, Bel-7402, Bel7402 cell strain, read-out: IC50 Bel7402
[10] = Table 15, 1,3,9-substituted β-carboline derivatives
[11] = Homo sapiens, Hela cell strain, read-out: IC50 Hela

melting point	Solubility [1, 10]	SMILES	IC50 (PLA-801; [4])	IC50 (Lovo; [5])	IC50 (HepG2; [6])	IC50 (NIH3T3; [7])	IC50 (BGC-823; [8])	IC50 (Bel-7402; [9])	IC50 (Hela; [11])	further results
194 to 195 °C	soluble in DMSO	CCn1c2ccccc2c2cc(C(=O)O)nc(-c3ccccc3)c21 [Compound 79, 9-ethyl-1-phenyl-β-carboline-3-carboxylic acid]	110 µM	100 µM	160 µM	120 µM	250 µM	140 µM	140 µM	–
223 to 234 °C and 223 to 224 °C	soluble in DMSO	Cn1c2ccccc2c2cc(C(=O)O)nc(-c3ccccc3)c21 [Compound 78, 9-methyl-1-phenyl-β-carboline-3-carboxylic acid]	650 µM	110 µM	160 µM	150 µM	210 µM	280 µM	170 µM	–
193 to 194 °C	soluble in DMSO	CCCc1nc(C(=O)O)cc2c3ccccc3n(Cc3ccccc3)c12 [Compound 74, 9-benzyl-1-propyl-β-carboline-3-carboxylic acid]	270 µM	140 µM	170 µM	160 µM	270 µM	180 µM	160 µM	–

The remaining lines, values behind:

SMILES	melting point	Solubility [1, 10]	IC50 (PLA-801; [4])	IC50 (Lovo; [5])	IC50 (HepG2; [6])	IC50 (NIH3T3; [7])	IC50 (BGC-823; [8])	IC50 (Bel-7402; [9])	IC50 (Hela; [11])	further results
O=C(Cn1c2ccccc2c2cc(C(=O)O)ncc21)c1ccccc1 [Compound 50, 9-acetophenone-β-carboline-3-carboxylic acid]	–	–	140 µM	–	–	–	–	–	–	IC50 (Lovo; Lovo cell strain, read-out: IC50 Lovo): 70 µM; IC50 (HepG2; HepG2 cell strain, read-out: IC50 HepG2): 90 µM; IC50 (NIH3T3; NIH3T3 cell strain, read-out: IC50 NIH3T3): 50 µM; IC50 (BGC-823; BGC823 cell strain, read-out: IC50 BGC823): 60 µM; IC50 (Bel-7402; Bel7402 cell strain, read-out: IC50 Bel7402): 140 µM; Solubility ([1]; Table 12, 3,9-disubstituted β-carboline derivatives): soluble in DMSO; IC50 (Hela; Hela cell strain, read-out: IC50 Hela): 70 µM
Cc1nc(C(=O)O)cc2c3ccccc3n(Cc3ccccc3)c12 [Compound 64, 9-benzyl-1-methyl-β-carboline-3-carboxylic acid]	246 to 248 °C	soluble in DMSO	410 µM	200 µM	280 µM	140 µM	280 µM	690 µM	370 µM	–
COc1ccc2c(c1)[nH]c1c(C)nccc12 [Compound 1, reference compound]	–	–	–	–	–	–	–	–	–	ΔTm (CT-DNA [2]): 8.5 °C; IC50 (Lovo; Homo sapiens, LoVo): 70 µM; IC50 (HepG2; Homo sapiens, HepG2): 50 µM; IC50 (NIH3T3; Mus musculus, NIH3T3): 60 µM; IC50 (BGC-823; Homo sapiens, BGC-823): 70 µM; Inhibition rate (%) S180 sarcomata (S180 sarcoma): 15.3%; IC50 (Bel-7402; Homo sapiens, Bel-7402): 20 µM; IC50 (Hela; Homo sapiens, HeLa): 60 µM; Inhibition rate (%) Lewis cancer (Lewis lung cancer): 34.1%; IC50 (PLA-801): 50 µM; Influence on the UV absorption of DNA (CT-DNA [3]): reduce the UV absorption of DNA
